Results on 86 molecules are retold here after a melting point compilation (Tetko et al.; mined from patent text by program, amines drawn as free bases though some values may be those of a salt).

A word on the melting point: it is the temperature of the solid-liquid transition.

Some results are limits rather than exact numbers.

In the case of `COC(=O)C(C)(C)c1ccc(C(=O)Nc2cn3cc(-c4cn[nH]c4)ccc3n2)cc1`, the melting point was 248 to 249 °C.

On to `C=C(C)C(=O)NC1=CC(C(=O)O)C(O)(C(C)=O)C=C1` (stereo unspecified), for which the melting point is 192 °C.

In turn, `CC1(C)C(=O)Nc2cc3[nH]c(-c4cccs4)nc3cc21` came in with a melting point of 332 to 336 °C.

Regarding `COc1ccc(NC(N)=S)c(N2CCOCC2)c1`, the melting point was 175 °C.

`O=C(COc1cc(-c2ccccc2)on1)NCCO[N+](=O)[O-]`: the melting point was in the range of 113 to 114 °C.

For the molecule `Cc1ccc(-c2ccc3c(c2)C=C(C(=O)Nc2ccc(CP4(=O)OCCCO4)cc2)CCO3)cc1`, the melting point lay within 268 to 269 °C.

Take `CS(=O)(=O)c1ccc(-n2cc(-c3ccc(Br)cc3)nc2-c2ccc(Cl)cc2)cc1`: the melting point lay within 145 to 148 °C.

For `C(=NNc1ccccc1)c1ccccn1`, the melting point was found to be 179 °C.

In turn, `O=S(=O)(Nc1cccc2cc(-c3ccccn3)[nH]c12)c1cccs1` had a melting point of 161 to 162 °C.

As to `Cc1nnc(-c2ccccc2F)n2nc(OCc3ncnn3C)c(-c3ccsc3)c12`, the melting point is 124 to 129 °C.

For `Cc1cc(C)n(Cc2ccc3c(c2)Cc2c(-c4ccsc4)n[nH]c2-3)n1`, the melting point is 257 to 260 °C.

`Cc1cc(Nc2ccnc(Nc3ccc(S(=O)(=O)N4CCC(C(O)Cc5ncccc5C)CC4)cc3)n2)ccc1F` (stereo unspecified) had a melting point of 103 to 104 °C.

In turn, `O=C(O)c1nc2c(NCc3ccccc3)ncnc2n1C1OC(CO)C(O)C1O` (stereo unspecified) returned a melting point of 125 to 127 °C.

For the molecule `COc1cc(C#C[Si](C)(C)C)c(OC)cc1C#C[Si](C)(C)C`, the melting point was in the range of 164 to 165 °C.

Molecule `CN1CCc2cc(C#CCO)cc3c(=O)c(C(=O)NCc4ccc(Cl)cc4)cn1c23` displayed a melting point of 165 to 167 °C.

Consider `CCCCCCCCCCOc1ccccc1C(=N)OCC`, for which the melting point is 93 to 96 °C.

Molecule `COc1cn2nc(OCCCN3CCC(OC(c4ccccc4)c4ccccc4)CC3)ccc2n1` displayed a melting point of 133 to 135 °C.

Consider `Cc1scc2c1N(C(=O)N1CCCC(CCCN(C)C)C1)c1ccccc1NC2=O` (stereo unspecified), for which the melting point lay within 137 to 139 °C.

Molecule `Cc1cnc(N2CCC(c3ccc(S(N)(=O)=O)cc3)CC2)n1C` registered a melting point of 256 to 257 °C.

The molecule `CCCCNc1c(C(=O)OCC)c(C)nc2c1nnn2CC` had a melting point of 42 to 43 °C.

Molecule `Cc1c(OCCCO)ccnc1CO` gave a melting point of 65 to 70 °C.

`O=C(Nc1cc(-c2ccc(Cl)cc2)on1)c1c(Cl)cccc1Cl` registered a melting point of 228 to 229 °C.

Take `Clc1cccc2c(CN3CCN(c4cc5ccccc5cn4)CC3)n[nH]c12`: the melting point was 208 to 209 °C.

On to `CCOCOC(=O)c1c(I)cc(I)c(NC(C)=O)c1I`, for which the melting point lay in the range of 174 to 178 °C.

As to `CCCCCCCCCCCCCCOc1ccc(C(=O)Nc2ccccc2)cc1`, the melting point fell in the range of 124 to 126 °C.

Regarding `O=C(CCCC1CCCCC1)N[C@H]1CO[C@H]2[C@@H]1OC[C@@H]2NC(=O)C1CC1`, the melting point came to 182 °C.

Consider `COc1ccc(CNc2nc(N3CCC[C@H]3CO)ncc2C(=O)O)cc1Cl`, for which the melting point lay in the range of 205 to 208 °C.

In the case of `O=S1NC(Cc2ccc3c(Cl)cccc3c2)=NO1` (stereo unspecified), the melting point is 164 to 165 °C.

In the case of `O=C(O)c1ccc(Cn2cc(C3c4ccc(C(F)(F)F)cc4C=Cc4cc(C(F)(F)F)ccc43)c(=S)[nH]c2=O)o1`, the melting point lay in the range of 159 to 162 °C.

`O=C1COCC(c2ccc(F)c(F)c2)N1C(=O)NCCCN1CCC(O)(c2ccccc2)CC1` (stereo unspecified) yielded a melting point of 85 to 88 °C.

In turn, `CN(c1ccc(Cl)cc1[N+](=O)[O-])S(=O)(=O)C=Cc1ccccc1` came in with a melting point of 162 to 164 °C.

Turning to `O=C(O)c1cccc(-c2ncn(-c3ccc(N4CCCC4=O)cc3)n2)c1`, the melting point lay in the range of 270 to 273 °C.

`O=C(Nc1ccc(CCc2ccc(O)c(O)c2)cc1)C(=O)C1=C(O)c2ccccc2SC1` gave a melting point of 166 to 167 °C.

Consider `CC1(C)Cc2cccc(OCCNCc3cccc(C4=C(F)CCC4)c3)c2O1`, for which the melting point was found to be 145 °C.

The molecule `CCOC(=O)N=C1NCC(Oc2ccc(C(Cc3cc4cc(C#N)ccc4s3)C(=O)OCC)cc2)CN1` (stereo unspecified) had a melting point of 179 to 182 °C.

Consider `Cc1cc2c(cc1Br)OCC(C)(C)CC2(O)c1ccccn1` (stereo unspecified), for which the melting point stood at 129 °C.

Molecule `CCC(=O)N1C(=S)NC(C)=C(C(=O)OC)C1c1cccc([N+](=O)[O-])c1` (stereo unspecified) had a melting point of 167 to 171 °C.

In the case of `Cc1cc(C2=NOC(C)(c3cc(Cl)cc(Cl)c3)C2)ccc1C(=O)NCC(O)CO` (stereo unspecified), the melting point was 98 °C.

Consider `CCC(CC)Nc1cc(C)nc(Nc2c(C)cc(C)cc2C)c1CC(C(=O)OC)C(=O)OC`, for which the melting point was 136 to 138 °C.

For the molecule `CCCCCc1ccc(-c2ccc(N)cc2)nc1`, the melting point was in the range of 60.3 to 61.3 °C.

For the molecule `Cc1ccc(-c2nn(-c3cccc(OC(F)(F)F)c3)c(N)c2C(N)=O)cc1`, the melting point was 177 to 179 °C.

`O=C(NCCCCCCCNC(=O)c1ccc(Oc2ccccc2)cc1)c1ccc(Oc2ccccc2)cc1` had a melting point of 164 to 165 °C.

Molecule `CNC(=O)c1[nH]c2ccccc2c1Sc1ccccc1` showed a melting point of 201 to 204 °C.

With `Clc1ccc2[nH]c(=Nc3ccccc3)n3nc(-c4ccco4)nc3c2c1`, the melting point is 231 to 233 °C.

`CC12CCC(CC1=O)C(C)(C)O2` (stereo unspecified) yielded a melting point of 40 to 48 °C.

In turn, `O=C1NCN(c2ccccc2)C12CCN(CCCn1c(=O)[nH]c3cc(Cl)ccc31)CC2` displayed a melting point of 234 °C.

With `COC(=O)CCCc1cc2c(Nc3cc(OC)c(OC)c(OC)c3)c(C#N)cnc2s1`, the melting point was 101 to 103 °C.

The molecule `O=Cc1ccc(O)c(NC(=O)CCl)c1` came in with a melting point of 190 to 192 °C.

The molecule `CC(C)(C)CNc1nc(C#N)nc2ccc(OCc3ccccn3)cc12` showed a melting point of 160 °C.

In the case of `C/C=C/CC(=O)N[C@H]1CC[C@H](CCN2CCN(c3nccc4c3OCC4)CC2)CC1`, the melting point came to 170 °C.

Molecule `S=c1[nH]ccc2ccsc12` gave a melting point of 187 to 189 °C.

Turning to `C[C@]1(Cn2ccnc2)[C@H](C(=O)O)N2C(=O)C[C@H]2S1(=O)=O`, the melting point was 161 °C.

With `Cc1c(NC(=O)c2cc3c(s2)CCCC3)cccc1-c1cn(C)c(=O)c(Br)n1`, the melting point fell in the range of 240 to 241 °C.

Turning to `O[C@H](COc1cccc2[nH]ccc12)CN1CC=C(c2c[nH]c3cc(Cl)ccc23)CC1`, the melting point was in the range of 200 to 202 °C.

For the molecule `CCN1C(=O)CCc2cnc(Nc3ccccc3)cc21`, the melting point was in the range of 137 to 138 °C.

Molecule `CCOc1cc(C)ccc1C1CCN(CCCCNC(=O)c2ccc3oc(-c4ccc(Cl)cc4)cc3c2)CC1` showed a melting point of 145 to 158 °C.

Regarding `CC(C)(C(=O)c1ccccc1OCC(=O)O)N1CCN(c2ccncc2)CC1`, the melting point is 278 to 279 °C.

With `CC(C)OC(=O)N1CCC(c2nc3cc(-c4ccc(C(F)F)cc4)ccc3o2)CC1`, the melting point lay within 151 to 154 °C.

In turn, `Oc1ccc2cc(-c3cnc(Cc4ccccc4)o3)ccc2c1` displayed a melting point of 200 to 202 °C.

For the molecule `CC(=NNc1ccccc1)c1c(-c2ccccc2)noc1C`, the melting point is 129 to 133 °C.

On to `Cc1cc(-c2ccc(Cl)cc2)cn2cc(C(=O)NC(Cc3ccc(OCc4ccccc4)cc3)C(=O)O)nc12` (stereo unspecified), for which the melting point was in the range of 249 to 250 °C.

In turn, `COc1ccc(C(=O)Nc2ccccc2)cc1NS(=O)(=O)c1cc(Cl)sc1Cl` showed a melting point of 189 to 190 °C.

For the molecule `Cc1c(C)c2c(c(C)c1NC(=O)CC(C)C)C(O)(c1ccc3ccccc3c1)C(C)(C)O2` (stereo unspecified), the melting point lay within 108 to 110 °C.

The molecule `CC(=O)Nc1c([N+](=O)[O-])cnn1-c1c(F)c(F)c(C(F)(F)F)c(F)c1F` came in with a melting point of 136 to 138 °C.

The molecule `CC(=O)Nc1cccc(OCCCN2CCC(c3noc4cc(F)ccc34)CC2)c1` came in with a melting point of 184 to 186 °C.

In turn, `Cc1ccnc2c(Oc3ccc([N+](=O)[O-])cc3)cccc12` showed a melting point of 148 to 149 °C.

In the case of `C[C@@H](CO)CCC[C@@H](C)[C@H]1C(=O)C[C@H]2[C@@H]3CC=C4C[C@@H](O)CC[C@]4(C)[C@H]3CC[C@]12C`, the melting point fell in the range of 167 to 169 °C.

Turning to `CS(=O)(=O)Nc1ccc(N2CCN(c3cc(N)ccn3)CC2)cc1`, the melting point was 225 to 227 °C.

In turn, `CCNC(=S)NNC(=O)c1ccc(N)cc1` came in with a melting point of 113 to 115 °C.

The molecule `CCCCCCCCCCCCc1ccccc1C(SCCC(=O)O)C(=O)O` (stereo unspecified) displayed a melting point of 44 to 46 °C.

`Cc1ccc(S(=O)(=O)OCCc2cccs2)cc1` showed a melting point of 30 °C.

Molecule `CCOC(=O)C1=C(C)Nc2ccnc(OC(C)C)c2C1c1ccc(C(F)(F)F)cc1` (stereo unspecified) displayed a melting point of 117 to 120 °C.

For the molecule `Cc1nc(-c2ccc(O)cc2)oc1C`, the melting point is 202 to 203 °C.

`COC(=O)c1ccc(OC)cc1C(C)=O` registered a melting point of 48 to 50 °C.

For the molecule `N#Cc1ccc(F)cc1-c1ccc(C(F)(F)F)cc1`, the melting point lay in the range of 106 to 107 °C.

For the molecule `O=C(Cc1ccc(F)cc1)Nc1ccc(-n2nc(C(F)(F)F)cc2C2CC2)cc1`, the melting point lay in the range of 135 to 140 °C.

Regarding `Nc1cnc(Br)c(N)n1`, the melting point fell in the range of 176 to 178 °C.

In turn, `CCCCc1nn(-c2cc(NC(=O)NCCC)ccc2Cl)c(=O)n1Cc1ccc(-c2ccccc2S(=O)(=O)NC(=O)c2ccccc2Cl)cc1` came in with a melting point of over 208 °C.

Consider `CCCCCCCCCCCCCCCCCC(=O)Nc1ccc(NC(=O)NS(=O)(=O)c2ccc3ccccc3c2)cc1`, for which the melting point was 192 °C.

In turn, `Cc1cc2oc(=O)c3c(c2cc1C)CCN(CCN1CC2CCC(CC2)C1)C3` showed a melting point of 174 to 175 °C.

On to `CC(=O)OC1=CC(C)C2(C)C(=C1)CCC1C3CCC(=O)C3(C)CCC12` (stereo unspecified), for which the melting point lay within 104 to 107 °C.

In the case of `CC(C)c1nc(-c2ccccc2)n(-c2ccc(F)cc2)c1C=C(Br)Br`, the melting point was 164 to 165 °C.

The molecule `COc1cc(Nc2c(C#N)cnc3cc(-c4csc(CN5CCN(C)CC5)c4)sc23)c(Cl)cc1Cl` had a melting point of 224 to 226 °C.

Take `CCC(CC)N1C(=O)CCc2c1cc(C)nc2Nc1c(C)cc(C)cc1C`: the melting point lay in the range of 44 to 46 °C.

In the case of `O=C(O)Cc1cc(Cl)c(O)cc1F`, the melting point was in the range of 137 to 138 °C.

On to `O=C1c2ccccc2C(=O)c2c1nc1c(Cl)cccn21`, for which the melting point was over 300 °C.
